Measurements as given in patent US20260234159A1, “SMALL MOLECULE TREATMENT OF FATTY LIVER DISEASE AND HCC” (SCANDIEDGE THERAPEUTICS AB, priority 2023, published 2026).
Read-outs that look alike come from different tables or passages of the source.

Legend:
[1] = test system: c-Myc; assay: Nuclear protein western blot, c-Myc; type: cell-based, human; details: 10 μM, 2 days
Method: HepG2 cells were seeded into a 6-well plate at 400,000 cells per well. After treatment with 10 μM of JNK-IN-5A and its derivatives for two days, lysates were harvested with CelLytic M (C2978, Sigma-Aldrich). 20 μg lysate was prepared with 2× Laemmli Sample Buffer (1610737, Biorad). SDS PAGE were performed using Mini-PROTEAN® TGX™ Precast Gels (Bio-Rad) and transferred using Trans-Blot® Turbo™ Transfer System (Bio-Rad). Primary antibody, PARP (95425, Cell signalling), Caspase 3 (ab32042, abcam), Bcl-2 (ab182858), STAT1 (HPA000982, Merk), PKL (06653, Sigma), PKM (4053S, Cell signalling), GAPDH (ab8245, abcam), P53 (ab32389, abcam), p21 (ab109199, abcam), p-S349 p62 (ab211324, abcam), p62 (ab109012, abcam), c-Myc (ab32072, abcam), GPX4 (ab125066, abcam), MMP9 (MA5-32705, Invitrogen), β-actin (ab8227, abcam), and α-tubulin (ab7291, abcam) were blotted overnight and Goat Anti-Rabbit HRP (ab205718) and goat anti-mouse IgG-HRP (sc2005, Santa Cruz Biotechnology, Inc.) were blotted for secondary antibody for one hour. ImageQuantTMLAS 500 (29-0050-63, GE) was used to detect protein bands.

[2] = test system: HepG2 cells; assay: Triglyceride (TAG) measurement assay, one week steatosis model; type: cell-based, human; details: Homo sapiens
Outline: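 HepG2 cells steatosis-induced for one week in high-glucose DMEM/10% FBS with 10 μg/ml insulin and 10 μM T0901317, media changed at days 0, 3 and 5, with 10 μM test compound throughout. Triglyceride measured colorimetrically (OD 570 nm); viability by MTT.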

[3] = In vivo toxicological study in rats: haematology; set-up: species or system rats of the Wistar strain
Method: Forty-two male and forty-two female rats of the Wistar strain were allocated to the study. Three groups of three males and three females were given doses of 30, 100 and 300 mg/kg of target compounds (Table 8). The vehicle was 1.5 w/w % HPMC, 1.5 w/w % PS80 in 10 mM PBS, pH 7 and dose volume were 5 mL/kg. The animals were acclimatised at least 14 day prior to the study and exposed to a 12 hours light, 12 hours dark light cycle. The formulations were administered via oral gavage. Administration occurred once daily in the morning for seven consecutive days. Blood for scheduled haematology and plasma chemistry were taken at necropsy. For plasma chemistry, 0.6 ml blood (lithium heparin) per animal and for haematology, 0.5 ml blood (K2EDTA) per animal. The blood and plasma were analysed using Exigo analyzer and Vetscan equipment. Blood was analysed within 60 min of sampling. On the morning of analysis, the Exigo analyzer was checked against a reference sample provided by the manufacturer, and a control sample analysis cycle was performed (Table 9).

[4] = 168 h, HepG2, 10 μM, one week steatosis induce media, Control 100.00, read-out: TAG (%)
[5] = HepG2, 168 h, ratio between TAG content and cell viability, Control 100.0, read-out: TAG/cell viability
[6] = female, 30 mg/kg oral daily 7 d
[7] = female, 100 mg/kg oral daily 7 d
[8] = female, 300 mg/kg oral daily 7 d

N#Cc1c(NC(=O)c2cccc3ccccc23)sc2c1CCCC2 [JNK-IN-5A, N-(3-cyano-4,5,6,7-tetrahydrobenzo[b]thiophen-2-yl)-1-naphthamide]
nuclear c-Myc expression [1]: significantly reduced | activity at 10 µM [2, 4]: 33% | activity at 10 µM [2, 5]: 58.4%

COc1ccc(C(=O)Nc2sc3c(c2C#N)CCCCC3)cc1OC [PKL-A135, N-(3-cyano-5,6,7,8-tetrahydro-4H-cyclohepta[b]thiophen-2-yl)-3,4-dimethoxy-benzamide]
GRAN [3, 6]: 0.97 10^9/l | HCT [3, 6]: 41.7% | HGB [3, 6]: 14.2 g/dL | LYM [3, 6]: 5.4 10^9/l | MCH [3, 6]: 19.5 pg | MCHC [3, 6]: 34.1 g/dL | MCV [3, 6]: 57.4 fL | MONO [3, 6]: 0.17 10^9/l | PLT [3, 6]: 1014 10^9/l | RBC [3, 6]: 7.26 10^12/l | RDW % [3, 6]: 14.2% | WBC [3, 6]: 6.6 10^9/l | GRAN [3, 7]: 1.33 10^9/l | HCT [3, 7]: 42.1% | HGB [3, 7]: 14.4 g/dL | LYM [3, 7]: 6.7 10^9/l | MCH [3, 7]: 19.9 pg | MCHC [3, 7]: 34.1 g/dL | MCV [3, 7]: 58.4 fL | MONO [3, 7]: 0.27 10^9/l | PLT [3, 7]: 978 10^9/l | RBC [3, 7]: 7.21 10^12/l | RDW % [3, 7]: 13.7% | WBC [3, 7]: 8.3 10^9/l | GRAN [3, 8]: 1.10 10^9/l | HCT [3, 8]: 42.8% | HGB [3, 8]: 14.7 g/dL | LYM [3, 8]: 5.1 10^9/l | MCH [3, 8]: 20.8 pg | MCHC [3, 8]: 34.2 g/dL | MCV [3, 8]: 60.8 fL | MONO [3, 8]: 0.20 10^9/l | PLT [3, 8]: 1011 10^9/l | RBC [3, 8]: 7.04 10^12/l | RDW % [3, 8]: 13.8% | WBC [3, 8]: 6.4 10^9/l | GRAN ([3]; male, 30 mg/kg oral daily 7 d): 1.83 10^9/l | HCT ([3]; male, 30 mg/kg oral daily 7 d): 44.3% | HGB ([3]; male, 30 mg/kg oral daily 7 d): 15 g/dL | LYM ([3]; male, 30 mg/kg oral daily 7 d): 6.5 10^9/l | MCH ([3]; male, 30 mg/kg oral daily 7 d): 19.7 pg | MCHC ([3]; male, 30 mg/kg oral daily 7 d): 33.9 g/dL | MCV ([3]; male, 30 mg/kg oral daily 7 d): 58.2 fL | MONO ([3]; male, 30 mg/kg oral daily 7 d): 0.30 10^9/l | PLT ([3]; male, 30 mg/kg oral daily 7 d): 841 10^9/l | RBC ([3]; male, 30 mg/kg oral daily 7 d): 7.62 10^12/l | RDW % ([3]; male, 30 mg/kg oral daily 7 d): 14.1% | WBC ([3]; male, 30 mg/kg oral daily 7 d): 8.6 10^9/l | GRAN ([3]; male, 100 mg/kg oral daily 7 d): 1.17 10^9/l | HCT ([3]; male, 100 mg/kg oral daily 7 d): 43.2% | HGB ([3]; male, 100 mg/kg oral daily 7 d): 14.6 g/dL | LYM ([3]; male, 100 mg/kg oral daily 7 d): 6.1 10^9/l | MCH ([3]; male, 100 mg/kg oral daily 7 d): 19.6 pg | MCHC ([3]; male, 100 mg/kg oral daily 7 d): 33.7 g/dL | MCV ([3]; male, 100 mg/kg oral daily 7 d): 58.1 fL | MONO ([3]; male, 100 mg/kg oral daily 7 d): 0.17 10^9/l | PLT ([3]; male, 100 mg/kg oral daily 7 d): 815 10^9/l | RBC ([3]; male, 100 mg/kg oral daily 7 d): 7.43 10^12/l | RDW % ([3]; male, 100 mg/kg oral daily 7 d): 14.4% | WBC ([3]; male, 100 mg/kg oral daily 7 d): 7.4 10^9/l | GRAN ([3]; male, 300 mg/kg oral daily 7 d): 1.13 10^9/l | HCT ([3]; male, 300 mg/kg oral daily 7 d): 43.8% | HGB ([3]; male, 300 mg/kg oral daily 7 d): 14.9 g/dL | LYM ([3]; male, 300 mg/kg oral daily 7 d): 6.2 10^9/l | MCH ([3]; male, 300 mg/kg oral daily 7 d): 20.7 pg | MCHC ([3]; male, 300 mg/kg oral daily 7 d): 34 g/dL | MCV ([3]; male, 300 mg/kg oral daily 7 d): 60.9 fL | MONO ([3]; male, 300 mg/kg oral daily 7 d): 0.20 10^9/l | PLT ([3]; male, 300 mg/kg oral daily 7 d): 924 10^9/l | RBC ([3]; male, 300 mg/kg oral daily 7 d): 7.20 10^12/l | RDW % ([3]; male, 300 mg/kg oral daily 7 d): 14.0% | WBC ([3]; male, 300 mg/kg oral daily 7 d): 7.5 10^9/l | activity at 10 µM [2, 4]: 49.1% | activity at 10 µM [2, 5]: 77.6%
